For 29 compounds, EC50 results are on record in US8394789B2, “(Dihydro)pyrrolo[2,1-α]isoquinolines” (MSD Oss B.V., priority 2008, dated 2013).

The term EC50 denotes the concentration giving half of the maximal effect. A higher EC50 goes with a less potent agent.

In this assay the target is T1, human FSH receptor (Homo sapiens, UniProt P23945).
T1 construct: expressed in transfected cells
T1 sequence (P23945 18-695): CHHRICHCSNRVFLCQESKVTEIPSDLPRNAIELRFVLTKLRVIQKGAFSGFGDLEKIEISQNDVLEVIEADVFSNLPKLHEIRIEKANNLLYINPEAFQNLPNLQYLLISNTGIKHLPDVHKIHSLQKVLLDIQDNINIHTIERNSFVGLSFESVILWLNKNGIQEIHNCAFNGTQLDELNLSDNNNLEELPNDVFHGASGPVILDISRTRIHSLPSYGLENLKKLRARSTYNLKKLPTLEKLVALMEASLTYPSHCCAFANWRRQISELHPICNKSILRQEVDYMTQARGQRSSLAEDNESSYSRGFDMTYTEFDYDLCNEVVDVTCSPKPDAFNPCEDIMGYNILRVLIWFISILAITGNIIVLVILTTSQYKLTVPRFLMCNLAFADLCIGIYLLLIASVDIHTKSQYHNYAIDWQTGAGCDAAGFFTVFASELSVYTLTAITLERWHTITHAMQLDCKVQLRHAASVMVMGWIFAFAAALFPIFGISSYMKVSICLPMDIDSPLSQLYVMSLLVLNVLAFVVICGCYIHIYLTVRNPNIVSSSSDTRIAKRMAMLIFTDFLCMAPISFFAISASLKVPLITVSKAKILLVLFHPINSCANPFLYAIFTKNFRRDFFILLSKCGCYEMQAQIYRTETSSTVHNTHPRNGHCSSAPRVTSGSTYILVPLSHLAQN
In words: hFSHRago (CHO luc): agonistic activity at the human FSH receptor expressed in CHO cells, CRE-luciferase reporter. Format: cell-based. To be noted: CHO cells stably transfected with human FSH receptor and CRE/luciferase reporter; 4 hours of incubation. Background: A reporter such as luciferase makes a cellular process visible.
Excerpt: The term EC50 means the concentration of the test compound that elicits half-maximal (50%) stimulation compared to the compound's maximally attainable effect. The values can be determined e.g. in a cell line transfected with a FSH receptor gene and cotransfected with a cAMP responsive element/promoter directing the expression of a reporter gene. Values can be determined using the software program such as MathIQ (version 2.0, ID Business Solutions Limited).
Agonistic activity of the compounds at the human FSH receptor was determined in Chinese Hamster Ovary (CHO) cells stably transfected with the human FSH receptor and cotransfected with a cAMP responsive element (CRE)/promoter directing the expression of a firefly luciferase reporter gene. […] Cells (7,500 cells/well of a 384 well plate) were incubated in Dulbecco' minimal essential F12 modified medium (Invitrogen), supplemented with 1 μg/ml bovine insulin, 5 μg/ml human apo-transferrin, 80 U/ml penicillin G and 80 μg/ml streptomycin with the test compounds (concentration between 0.0316 nM and 10.0 μM) in duplicate in a humidified atmosphere (95%) at 5-7% CO2 and 37° C. The final concentration of DMSO was 1%. After 4 hours of incubation, plates were allowed to adjust to room temperature for 1 hour. Then, Luclite (PerkinElmer) solution was added to the wells and cells were allowed to lyse for at least 1 hour at room temperature. Subsequently, luciferase activity was measured in a luminescence counter. The signal is expressed as counts per second (cps). The EC50 (concentration of the test compound that elicits half-maximal (50%) luciferase stimulation compared to the compound's maximally attainable effect) and efficacy values (maximal effect of the test compound as percentage of the maximal effect of recombinant human FSH) of the compounds were determined using the software program MathIQ (version 2.0, ID Business Solutions Limited).
The compound `COc1cc2c(cc1C#N)-c1c(-c3cccs3)cc(C(=O)N(C)C(C)(C)C)n1CC2` [Example 83, 9-Cyano-8-methoxy-1-thiophen-2-yl-5,6-dihydro-pyrrolo[2,1--α]isoquinoline-3-carboxylic acid tert-butyl-methyl-amide] returned an EC50 of 4.3 nM.
For `CCOC(=O)c1cc2c(cc1OC)CCn1c(C(=O)N3CCCN(C(=O)C4CCC4)CC3)cc(-c3cccs3)c1-2` [Example 84, 3-(4-Cyclobutanecarbonyl-[1,4]diazepane-1-carbonyl)-8-methoxy-1-thiophen-2-yl-5,6-dihydro-pyrrolo[2,1--α]isoquinoline-9-carboxylic acid ethyl ester], the EC50 was 2.9 nM. This EC50 and that of the compound before are within 1.5-fold of each other.
In turn, `COc1cc2c(cc1Br)-c1c(-c3cccs3)cc(C(=O)N(C)C(C)(C)C)n1CC2` [Example 85a, 9-Bromo-8-methoxy-1-thiophen-2-yl-5,6-dihydro-pyrrolo[2,1--α]isoquinoline-3-carboxylic acid tert-butyl-methyl-amide] showed an EC50 of 11.3 nM.
As for `CC#Cc1cc2c(cc1OC)CCn1c(C(=O)N(C)C(C)(C)C)cc(-c3cccs3)c1-2` [Example 85b, 8-Methoxy-9-prop-1-ynyl-1-thiophen-2-yl-5,6-dihydro-pyrrolo[2,1--α]isoquinoline-3-carboxylic acid tert-butyl-methyl-amide], a half-maximal response (EC50) required 2.7 nM.
`COc1cc2c(cc1C(=O)N1CCOCC1)-c1c(-c3cccs3)cc(C(=O)N(C)C(C)(C)C)n1CC2` [Example 86] registered an EC50 of 69.4 nM.
The figure for `COc1cc2c(cc1C(=O)NCCO)-c1c(-c3cccs3)cc(C(=O)N(C)C(C)(C)C)n1CC2` [Example 87, 8-Methoxy-1-thiophen-2-yl-5,6,6a,10a-tetrahydro-pyrrolo[2,1-α]isoquinoline-3,9-dicarboxylic acid 3-(tert-butyl-methyl-amide) 9-[(2-hydroxy-ethyl)-amide]] is 23.9 nM; for `CN(C(=O)c1cc(-c2cccs2)c2n1CCc1ccc(N3CCCC3=O)cc1-2)C(C)(C)C` [Example 88, 9-(2-Oxo-pyrrolidin-1-yl)-1-thiophen-2-yl-5,6-dihydro-pyrrolo[2,1-α]isoquinoline-3-carboxylic acid tert-butyl-methyl-amide] it is 310 nM.
The compound `CN(C(=O)c1cc(-c2cccs2)c2n1CCc1ccc(N3CCOC3=O)cc1-2)C(C)(C)C` [Example 89, 9-(2-Oxo-oxazolidin-3-yl)-1-thiophen-2-yl-5,6-dihydro-pyrrolo[2,1-α]isoquinoline-3-carboxylic acid tert-butyl-methyl-amide] showed an EC50 of 245 nM.
In the case of `CN(C(=O)c1cc(-c2cccs2)c2n1CCc1ccc(N3CCNC3=O)cc1-2)C(C)(C)C` [Example 90, 9-(2-Oxo-imidazolidin-1-yl)-1-thiophen-2-yl-5,6-dihydro-pyrrolo[2,1-α]isoquinoline-3-carboxylic acid tert-butyl-methyl-amide], the EC50 came out at 218 nM. This EC50 and that of the compound before are within 1.5-fold of each other.
`COc1cc2c(cc1C=O)-c1c(-c3cccs3)cc(C(=O)N(C)C(C)(C)C)n1CC2` [Example 91a, 9-Formyl-8-methoxy-1-thiophen-2-yl-5,6-dihydro-pyrrolo[2,1-α]isoquinoline-3-carboxylic acid tert-butyl-methyl-amide] came in with an EC50 of 6 nM. Compared with the last compound, the EC50 is about 36-fold lower.
For `COc1cc2c(cc1CCCO)-c1c(-c3cccs3)cc(C(=O)N(C)C(C)(C)C)n1CC2` [Example 91d, 9-(3-hydroxy-propyl)-8-methoxy-1-thiophen-2-yl-5,6-dihydro-pyrrolo[2,1-α]iso-quinoline-3-carboxylic acid tert-butyl-methyl-amide], the EC50 worked out at 0.4 nM.
`COc1cc2c(cc1C=C(F)F)-c1c(-c3cccs3)cc(C(=O)N(C)C(C)(C)C)n1CC2` [Example 93] yielded an EC50 of 3 nM.
`COc1cc2c(cc1[N+](=O)[O-])-c1c(-c3cccs3)cc(C(=O)N(C)C(C)(C)C)n1CC2` [Example 94, 8-Methoxy-9-nitro-1-thiophen-2-yl-5,6-dihydro-pyrrolo[2,1-α]isoquinoline-3-carboxylic acid tert-butyl-methyl-amide] gave an EC50 of 3 nM.
In turn, `COc1cc2c(cc1N)-c1c(-c3cccs3)cc(C(=O)N(C)C(C)(C)C)n1CC2` [Example 95, 9-Amino-8-methoxy-1-thiophen-2-yl-5,6-dihydro-pyrrolo[2,1-α]isoquinoline-3-carboxylic acid tert-butyl-methyl-amide] yielded an EC50 of 44.8 nM.
`COc1cc2c(cc1NC(=O)CN(C)C)-c1c(-c3cccs3)cc(C(=O)N(C)C(C)(C)C)n1CC2` [Example 96, 9-(2-Dimethylamino-acetylamino)-8-methoxy-1-thiophen-2-yl-5,6,6 a,10a-tetrahydro-pyrrolo[2,1-α]isoquinoline-3-carboxylic acid tert-butyl-methyl-amide] yielded an EC50 of 2.8 nM.
`COc1cc2c(cc1NC(=O)CN1CCC1)-c1c(-c3cccs3)cc(C(=O)N(C)C(C)(C)C)n1CC2` [Example 97, 9-(2-Azetidin-1-yl-acetylamino)-8-methoxy-1-thiophen-2-yl-5,6-dihydro-pyrrolo[2,1-α]isoquinoline-3-carboxylic acid tert-butyl-methyl-amide] gave an EC50 of 4 nM.
In the case of `COCC(=O)Nc1cc2c(cc1OC)CCn1c(C(=O)N(C)C(C)(C)C)cc(-c3cccs3)c1-2` [Example 98, 8-Methoxy-9-(2-methoxy-acetylamino)-1-thiophen-2-yl-5,6-dihydro-pyrrolo[2,1-α]isoquinoline-3-carboxylic acid tert-butyl-methyl-amide], a half-maximal effect (EC50) was put at 1.4 nM.
The figure for `CCOC(=O)Nc1cc2c(cc1OC)CCn1c(C(=O)N3CCCC3(C)C)cc(-c3cccs3)c1-2` [Example 99, [3-(2,2-Dimethyl-pyrrolidine-1-carbonyl)-8-methoxy-1-thiophen-2-yl-5,6-dihydro-pyrrolo[2,1-α]isoquinolin-9-yl]-carbamic acid ethyl ester] is 22 nM; for `COc1cc2c(cc1NS(C)(=O)=O)-c1c(-c3cccs3)cc(C(=O)N3CCCC3(C)C)n1CC2` [Example 100, N-[3-(2,2-Dimethyl-pyrrolidine-1-carbonyl)-8-methoxy-1-thiophen-2-yl-5,6-dihydro-pyrrolo[2,1-α]isoquinolin-9-yl]-methanesulfonamide] it is 1 nM.
The figure for `COc1cc2c(cc1NC(=O)CN1CCOCC1)-c1c(-c3cccs3)cc(C(=O)N3CCCC3(C)C)n1CC2` [Example 101, N-[3-(2,2-Dimethyl-pyrrolidine-1-carbonyl)-8-methoxy-1-thiophen-2-yl-5,6-dihydro-pyrrolo[2,1-α]isoquinolin-9-yl]-2-morpholin-4-yl-acetamide] is 2 nM.
`CN(C(=O)c1cc(-c2cccs2)c2n1CCc1ccc(NS(=O)(=O)N(C)C)cc1-2)C(C)(C)C` [Example 103, 9-Dimethylaminosulfonylamino-1-thiophen-2-yl-5,6-dihydro-pyrrolo[2,1-α]isoquinoline-3-carboxylic acid tert-butyl-methyl-amide] showed an EC50 of 756 nM.
The figure for `COc1cc2c(cc1OC)-c1c(-c3cccs3)cc(C(=O)N3CCCN(C(=O)C4(C)CCC4)CC3)n1CC2` [Example 104, (8,9-Dimethoxy-1-thiophen-2-yl-5,6-dihydro-pyrrolo[2,1-α]isoquinolin-3-yl)-[4-(1-methyl-cyclobutanecarbonyl)-[1,4]diazepan-1-yl]-methanone] is 3 nM.
For `COc1cc2c(cc1OC)-c1c(-c3cccs3)cc(C(=O)N3CCC[C@H](NC(=O)C4CCC4)C3)n1CC2` [Example 105, Cyclobutanecarboxylic acid [(S)-1-(8,9-dimethoxy-1-thiophen-2-yl-5,6-dihydro-pyrrolo[2,1-α]isoquinoline-3-carbonyl)-piperidin-3-yl]-amide], the EC50 is 1730 nM.
`COc1cc2c(cc1OC)-c1c(-c3cccs3)cc(C(=O)N3CC[C@@H](NC(=O)N(C)C)C3)n1CC2` [Example 106, 3-[(R)-1-(8,9-Dimethoxy-1-thiophen-2-yl-5,6-dihydro-pyrrolo[2,1-α]isoquinoline-3-carbonyl)-pyrrolidin-3-yl]-1,1-dimethyl-urea] registered an EC50 of 755 nM. Against the preceding compound, the EC50 is about 2.3-fold lower.
Consider `COc1cc2c(cc1OC)-c1c(-c3cccs3)cc(C(=O)N3CCC[C@@H](N(C)C(C)=O)C3)n1CC2` [Example 107, N-[(R)-1-(8,9-Dimethoxy-1-thiophen-2-yl-5,6-dihydro-pyrrolo[2,1-α]isoquinoline-3-carbonyl)-piperidin-3-yl]-N-methyl-acetamide], for which the EC50 was determined as 30.9 nM.
The figure for `COc1cc2c(cc1OC)-c1c(Br)cc(C(=O)O)n1CC2` [Example 108b] is 99.2 nM; for `COc1cc2c(cc1OC)-c1c(Br)cc(C(=O)N3CCCN(C(=O)C4CCC4)CC3)n1CC2` [Example 108c] it is 100 nM.
Turning to `C#Cc1cc(C(=O)N2CCCN(C(=O)c3ccccc3)CC2)n2c1-c1cc(OC)c(OC)cc1CC2` [Example 109, (4-Benzoyl-[1,4]diazepan-1-yl)-(1-ethynyl-8,9-dimethoxy-5,6-dihydro-pyrrolo[2,1-α]isoquinolin-3-yl)-methanone], the EC50 stood at 76.2 nM.
`COc1cc2c(cc1OC)-c1c(C3=CCCCC3)cc(C(=O)N(C)C(C)(C)C)n1CC2` [Example 110, 1-Cyclohex-1-enyl-8,9-dimethoxy-5,6-dihydro-pyrrolo[2,1-α]isoquinoline-3-carboxylic acid tert-butyl-methyl-amide] showed an EC50 of 76.5 nM. This EC50 and that of the compound before are within 1.5-fold of each other.
